Tests used:
Format in all cases: in vivo
[1] = system: giant foxtail (Setaria faberii); test: Test A preemergence; conditions: Setaria faberi, pre-emergence, 240 h, 0 to 100 scale (0 no effect, 100 complete control), read-out: Plant response rating, Foxtail, Giant; for pest or weed control at 500 g/ha: 500 g ai/ha, preemergence; for pest or weed control at 125 g/ha: Preemergence, 125 g ai/ha
Procedure, shortened: (§1)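 Preemergence soil spray on seeded pots or post-emergence spray on 1–2 leaf plants, in loam–sand blend. Greenhouse ~10 d. Visual rating 0–100 against untreated plants.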

[2] = system: barnyardgrass (Echinochloa crus-galli); test: Test A preemergence; conditions: Echinochloa crus-galli, pre-emergence, 240 h, 0 to 100 scale (0 no effect, 100 complete control), read-out: Plant response rating, Barnyardgrass; for pest or weed control at 500 g/ha: 500 g ai/ha, preemergence; for pest or weed control at 125 g/ha: Preemergence, 125 g ai/ha
Procedure, shortened: as §1

[3] = system: pigweed (Amaranthus retroflexus); test: Test A preemergence; conditions: Amaranthus retroflexus, pre-emergence, 240 h, 0 to 100 scale (0 no effect, 100 complete control), read-out: Plant response rating, Pigweed; for pest or weed control at 500 g/ha: 500 g ai/ha, preemergence; for pest or weed control at 125 g/ha: Preemergence, 125 g ai/ha
[4] = system: giant foxtail (Setaria faberii); test: Test A postemergence; conditions: Setaria faberi, post-emergence, 240 h, Postemergence; for pest or weed control at 125 g/ha: 125 g ai/ha, visual rating about 10 d after treatment, read-out: Foxtail, Giant plant response rating (0 to 100 scale); for pest or weed control at 500 g/ha: 500 g ai/ha, visual injury, 0 to 100 scale (0 no effect, 100 complete control), approx. 10 d, read-out: Plant response rating, Foxtail, Giant
Procedure, shortened: as §1

[5] = system: corn (Zea mays); test: Test A postemergence; conditions: Zea mays, post-emergence, 240 h, Postemergence; for plant injury at 125 g/ha: 125 g ai/ha, visual rating about 10 d after treatment, read-out: Corn plant response rating (0 to 100 scale); for Corn plant response rating (crop injury, 0 = no effect, 100 = complete kill) at 500 g/ha: 500 g ai/ha, visual injury, 0 to 100 scale (0 no effect, 100 complete control), approx. 10 d
Procedure, shortened: as §1

[6] = system: barnyardgrass (Echinochloa crus-galli); test: Test A postemergence; conditions: Echinochloa crus-galli, post-emergence, 240 h, Postemergence; for pest or weed control at 125 g/ha: 125 g ai/ha, visual rating about 10 d after treatment, read-out: Barnyardgrass plant response rating (0 to 100 scale, 0 no effect, 100 complete control); for pest or weed control at 500 g/ha: 500 g ai/ha, visual injury, 0 to 100 scale (0 no effect, 100 complete control), approx. 10 d, read-out: Plant response rating, Barnyardgrass
Procedure, shortened: as §1

[7] = system: pigweed (Amaranthus retroflexus); test: Test A postemergence; conditions: Amaranthus retroflexus, post-emergence, 240 h, Postemergence; for pest or weed control at 125 g/ha: 125 g ai/ha, visual rating about 10 d after treatment, read-out: Pigweed plant response rating (0 to 100 scale); for pest or weed control at 500 g/ha: 500 g ai/ha, visual injury, 0 to 100 scale (0 no effect, 100 complete control), approx. 10 d, read-out: Plant response rating, Pigweed
Procedure, shortened: as §1

[8] = system: wheat (Triticum aestivum); test: Test A postemergence; conditions: Triticum aestivum, post-emergence, 240 h, Postemergence; for plant injury at 125 g/ha: 125 g ai/ha, visual rating about 10 d after treatment, read-out: Wheat plant response rating (0 to 100 scale); for plant injury at 500 g/ha: 500 g ai/ha, visual injury, 0 to 100 scale (0 no effect, 100 complete control), approx. 10 d, read-out: Plant response rating, Wheat
Procedure, shortened: as §1

O=C1NCC(c2ccccc2)C1C(=O)Nc1ccc(C(F)(F)F)cc1 (centres unmarked) [Compound 1362]
0%: pest or weed control at 500 g/ha [1] | pest or weed control at 125 g/ha [1] | pest or weed control at 500 g/ha [2] | pest or weed control at 125 g/ha [2] | pest or weed control at 500 g/ha [3] | pest or weed control at 125 g/ha [3] | pest or weed control at 125 g/ha [4] | pest or weed control at 500 g/ha [4] | plant injury at 125 g/ha [5] | Corn plant response rating (crop injury, 0 = no effect, 100 = complete kill) at 500 g/ha [5] | pest or weed control at 125 g/ha [6] | pest or weed control at 500 g/ha [6] | pest or weed control at 125 g/ha [7] | pest or weed control at 500 g/ha [7] | plant injury at 125 g/ha [8] | plant injury at 500 g/ha [8]

O=C1NCC(c2ccccc2)C1C(=O)Nc1cc(F)ccc1F (centres unmarked) [Compound 1359]
0%: pest or weed control at 500 g/ha [1] | pest or weed control at 125 g/ha [1] | pest or weed control at 500 g/ha [2] | pest or weed control at 125 g/ha [2] | pest or weed control at 500 g/ha [3] | pest or weed control at 125 g/ha [3] | pest or weed control at 125 g/ha [4] | pest or weed control at 500 g/ha [4] | plant injury at 125 g/ha [5] | Corn plant response rating (crop injury, 0 = no effect, 100 = complete kill) at 500 g/ha [5] | pest or weed control at 125 g/ha [6] | pest or weed control at 500 g/ha [6] | pest or weed control at 125 g/ha [7] | pest or weed control at 500 g/ha [7] | plant injury at 125 g/ha [8] | plant injury at 500 g/ha [8]

Source: patent US12077503B2, “Substituted cyclic amides and their use as herbicides” (FMC CORPORATION, priority 2015, dated 2024)
